Earlier results in patent publication US20170119792A1, “METHODS AND COMPOSITIONS FOR DERMATOLOGICAL USE COMPRISING CLOBETASOL AND HALOBETASOL AND BIOPOLYMERS” (APEX LABORATORIES PRIVATE LIMITED, priority 2015, published 2017).

CCC(=O)O[C@]1(C(=O)CCl)[C@@H](C)C[C@H]2[C@@H]3CCC4=CC(=O)C=C[C@]4(C)[C@@]3(F)[C@@H](O)C[C@@]21C [Clobetasol propionate, (11β, 16β)-21-chloro-9-fluoro-11-hydroxy-16-methyl-17-(1-oxopropoxy)-pregna-1,4-diene-3, 20-dione]
solubility in water: insoluble in water

CCC(=O)O[C@]1(C(=O)CCl)[C@@H](C)C[C@H]2[C@@H]3C[C@H](F)C4=CC(=O)C=C[C@]4(C)[C@@]3(F)[C@@H](O)C[C@@]21C [Halobetasol propionate, 21-chloro-6α, 9-difluoro-11β, 17-dihydroxy-16β-methylpregna-1,4-diene-3, 20-dione17-propionate]
solubility in water: insoluble in water
